Results: patent US10444229B2, “Method of measuring insulin resistance with fatty acid combustion, and composition used herein” (OTSUKA PHARMACEUTICAL CO., LTD., priority 2013, dated 2019)
Read-outs that look alike come from different tables or passages of the source.

How the values were obtained:
[1] = 13C breath test after intravenous administration of 13C-labeled compounds to ZDF rats (Lean and Fatty), fasting or feeding (Experimental Example 2); conditions: for Δ13C(‰) of Fatty versus Lean rats: rat, in vivo, iv; for Δ13C(‰) in expired air, fasting state versus feeding state / transition of Δ13C(‰), Lean rats versus Fatty rats: intravenous; for transition of Δ13C(‰), Lean rats versus Fatty rats: ZDF rats, fasting and feeding groups
From the text: ZDF Fatty rat is an insulin-resistant test subject animal that has a low sensitivity to insulin, and develops a pathological condition similar to human adult type II diabetes and diabetes complication. In contrast, ZDF Lean rat is a healthy subject animal having normal blood glucose level and normal sensitivity to insulin. Lean and Fatty rats (A) were divided into a fasting group in which the rats were fasted from the previous day, and a feeding group. […] For (a) to (e), expired air was collected from rats (A), and for (f), expired air was collected and rats (B) (each group, n=3).
Expired air was obtained at time points (t minutes) from a time point before the administration of solutions (a) to (f) (0 minutes) to a time point 60 minutes after the administration, and Δ^13C(‰) was determined from ^13CO2 concentration in the expired air using an expired air analysis mass spectrometer (ABCA: product of SerCon).

[2] = fasted Zucker rats
Experimental: 1-^13C-sodium palmitate was dissolved in hydrous ethanol at about 80° C. at a concentration of 500 μmol/mL.
Rats (male, Zucker rat) were used as experimental animals. The rats that were fasted from the previous day of the test were divided into two groups: oral administration group and intravenous administration group (each group, n=3), and the 1-^13C-sodium palmitate solution (20 μmol/2 mL) prepared in (1) was orally and intravenously administered at a dosage of 2 mL/kg. Expired air was collected at each time point (t minutes) from a time point before administration (0 minutes) to a time point 180 minutes after the administration, and Δ^13C(‰) was determined from the concentration of ^13CO2 in the expired air using an expired air analysis mass spectrometer (ABCA: product of SerCon).
The value of Δ^13C(‰) was determined by measuring a concentration ratio ^13CO2/^12CO2 in the expired air (δ^13C value) at each time point (t minutes) from a time point before the 1-^13C-sodium palmitate administration (0 minutes) to a time point after the administration, and calculating the Δ^13C(‰) value from the difference between the δ^13C value (δ^13Ct) at each point (t) and the δ^13C value before the administration (δ^13Co) (δ^13Ct-δ^13Co) (the same calculation is used in the Experimental Examples below).

[3] = ZDF Fatty vs Lean and OLETF vs LETO, 11 weeks
Experimental: These rats were divided into a fasting group in which the rats were fasted from the previous day, and a feeding group. 1-^13C-sodium palmitate solution prepared in Experimental Example 2 was intravenously administered (2 ml/kg) to each group (each group, n=3).

[4] = for Δ13C(‰) in expired air, fasting state versus feeding state: intravenous 2 ml/kg
Experimental: OLETF rats are type II diabetes test subject animal with obesity or/and fatty liver, and LETO rats serve as a control thereof (healthy subjects).
These rats were divided into a fasting group in which the rats were fasted from the previous day, and a feeding group. 1-^13C-sodium palmitate solution prepared in Experimental Example 2 was intravenously administered (2 ml/kg) to each group (each group, n=3). Expired air was collected at time points (t minutes) from a time point before the 1-^13C-sodium palmitate solution administration (0 minutes) to a time point 60 minutes after the administration, and Δ^13C(‰) was determined from the ^13CO2 concentration in the expired air using an expired air analysis mass spectrometer (ABCA: product of SerCon).

[5] = ZDF Fatty rats (insulin-resistant)
[6] = ZDF Lean rats (healthy subjects)

Compound	Δ13C(‰) of Fatty versus Lean rats [1]	Δ13C(‰) in expired air, fasting state versus feeding state [1, 5]	Δ13C(‰) in expired air, fasting state versus feeding state [1, 6]	transition of Δ13C(‰), Lean rats versus Fatty rats [1]	other results
CCCCCCCCCCC[13C](=O)O [1-^13C-lauric acid]	higher than that of the healthy subjects (Lean)	–	–	–	–
CCCCCCCC/C=C\CCCCCCC[13C](=O)O [1-^13C-oleic acid]	higher than that of the healthy subjects (Lean)	higher in the fasting (hunger) state than in the feeding state	higher in the fasting (hunger) state than in the feeding state	–	–
C[13C](=O)[O-].[Na+] [1-^13C-sodium acetate, reference compound]	–	–	–	little difference between the results of Lean rats and the results of Fatty rats	–
CCCCCCC[13C](=O)[O-].[Na+] [1-^13C-sodium octanoate, reference compound]	–	–	–	little difference between the results of Lean rats and the results of Fatty rats	–
CCCCCCCCCCCCCCC[13C](=O)[O-].[Na+] [1-^13C-sodium palmitate]	higher than that of the healthy subjects (Lean)	higher in the fasting (hunger) state than in the feeding state	higher in the fasting (hunger) state than in the feeding state	–	excretion in expired air [2]: excreted in expired air as ^13CO2; time of Δ13C(‰) peak in expired air after administration ([2]; intravenous administration, 2 mL/kg of 20 μmol/2 mL): ≤ 10 min; transition of Δ13C(‰) in expired air ([2]; oral administration, 2 mL/kg of 20 μmol/2 mL, 0-180 minutes): little variation among respective measurement times; transition of Δ13C(‰), insulin-nonresistant hyperinsulinemia test subject versus healthy subject ([3]; fasting state): little difference; Δ13C(‰) value, insulin-nonresistant hyperinsulinemia test subject versus healthy subject ([3]; feeding state): significantly lower than that of the healthy subject; Δ13C(‰) in expired air, fasting state versus feeding state ([4]; LETO rats (healthy subjects)): higher in the fasting (hunger) state than in the feeding state; Δ13C(‰) in expired air, fasting state versus feeding state ([4]; OLETF rats (insulin-resistant, liver disease)): higher in the fasting (hunger) state than in the feeding state; Δ13C(‰) of OLETF versus LETO rats ([4]; fasting group and feeding group, period until 15 minutes after intravenous administration): higher than that of the healthy subjects (LETO)
